Data: ChEMBL document CHEMBL4190187, “Discovery of pyrazolopyrimidine derivatives as novel inhibitors of ataxia telangiectasia and rad3 related protein (ATR)” (Bioorg Med Chem Lett, 2017)

Key:
[1] = target: Serine/threonine-protein kinase BRSK1 (Homo sapiens) (UniProt Q8TDC3); assay: Inhibition of recombinant human BrSK1 (2 to end residues) at 1 uM using KKKVSRSGLYRSPSMPENLNRPR as substrate after 40 mins in presence of [gamma-33P]ATP by scintillation counting method
[2] = target: Dual specificity protein kinase CLK2 (Homo sapiens) (UniProt P49760); assay: Inhibition of recombinant human CLK2 (138 to end residues) at 1 uM using YRRAAVPPSPSLSRHSSPHQS(p)EDEEE as substrate after 40 mins in presence of [gamma-33P]ATP by scintillation counting method
[3] = target: Dual specificity protein kinase CLK4 (Homo sapiens) (UniProt Q9HAZ1); assay: Inhibition of recombinant human CLK4 (128 to end residues) at 1 uM using YRRAAVPPSPSLSRHSSPHQS(p)EDEEE as substrate after 40 mins in presence of [gamma-33P]ATP by scintillation counting method
[4] = target: Tyrosine-protein kinase CSK (Homo sapiens) (UniProt P41240); assay: Inhibition of recombinant full-length human CSK at 1 uM using poly(Glu,Tyr) 4:1 as substrate after 40 mins in presence of [gamma-33P]ATP by scintillation counting method
[5] = target: Ephrin type-A receptor 7 (Homo sapiens) (UniProt Q15375); assay: Inhibition of recombinant human EPHA7 (613 to 909 residues) at 1 uM using KTFCGTPEYLAPEVRREPRILSEEEQEMFRDFDYIADWC as substrate after 40 mins in presence of [gamma-33P]ATP by scintillation counting method
[6] = target: Tyrosine-protein kinase Fer (Homo sapiens) (UniProt P16591); assay: Inhibition of recombinant human FER (541 to end residues) at 1 uM using KKKSPGEYVNIEFG as substrate after 40 mins in presence of [gamma-33P]ATP by scintillation counting method
[7] = target: Receptor-type tyrosine-protein kinase FLT3 (Homo sapiens) (UniProt P36888); assay: Inhibition of recombinant human Flt3 (564 to end residues) at 1 uM using EAIYAAPFAKKK as substrate after 40 mins in presence of [gamma-33P]ATP by scintillation counting method
[8] = target: G protein-coupled receptor kinase 5 (Homo sapiens) (UniProt P34947); assay: Inhibition of recombinant full-length human GRK5 at 1 uM using casein as substrate after 40 mins in presence of [gamma-33P]ATP by scintillation counting method
[9] = target: Glycogen synthase kinase-3 beta (Homo sapiens) (UniProt P49841); assay: Inhibition of recombinant human GSK3beta (2 to end residues) at 1 uM using YRRAAVPPSPSLSRHSSPHQS(p)EDEEE (phospho GS2 peptide) as substrate after 40 mins in presence of [gamma-33P]ATP by scintillation counting method
[10] = target: Tyrosine-protein kinase HCK (Homo sapiens) (UniProt P08631); assay: Inhibition of recombinant human Hck (230 to 497 residues) at 1 uM using KVEKIGEGTYGVVYK (Cdc2 peptide) as substrate after 40 mins in presence of [gamma-33P]ATP by scintillation counting method
[11] = target: Mitogen-activated protein kinase kinase kinase kinase 1 (Homo sapiens) (UniProt Q92918); assay: Inhibition of recombinant human HPK1 (1 to 346 residues) at 1 uM using myelin basic protein as substrate after 40 mins in presence of [gamma-33P]ATP by scintillation counting method
[12] = target: Dual specificity mitogen-activated protein kinase kinase 2 (Homo sapiens) (UniProt P36507); assay: Inhibition of recombinant full-length human MEK2 at 1 uM using MBP as substrate after 40 mins in presence of [gamma-33P]ATP by scintillation counting method
[13] = system: Hepatocyte growth factor receptor (Homo sapiens), P08581 [D1246N]; assay: Inhibition of recombinant human Met D1246N mutant (974 to end residues) at 1 uM using KKKGQEEEYVFIE as substrate after 40 mins in presence of [gamma-33P]ATP by scintillation counting method
[14] = target: Mitogen-activated protein kinase kinase kinase 10 (Homo sapiens) (UniProt Q02779); assay: Inhibition of recombinant human MLK2 (1 to 449 residues) at 1 uM using myelin basic protein as substrate after 40 mins in presence of [gamma-33P]ATP by scintillation counting method
[15] = target: Muscle, skeletal receptor tyrosine-protein kinase (Homo sapiens) (UniProt O15146); assay: Inhibition of recombinant human MUSK (530 to end residues) at 1 uM using myelin basic protein as substrate after 40 mins in presence of [gamma-33P]ATP by scintillation counting method
[16] = target: Serine/threonine-protein kinase Nek1 (Homo sapiens) (UniProt Q96PY6); assay: Inhibition of recombinant human NEK1 (1 to 505 residues) at 1 uM using RLGRDKYKTLRQIRQ as substrate after 40 mins in presence of [gamma-33P]ATP by scintillation counting method
[17] = target: Serine/threonine-protein kinase pim-2 (Homo sapiens) (UniProt Q9P1W9); assay: Inhibition of recombinant human PIM2 (2 to end residues) at 1 uM using RSRHSSYPAGT as substrate after 40 mins in presence of [gamma-33P]ATP by scintillation counting method
[18] = target: Phosphatidylinositol 4-phosphate 5-kinase type-1 gamma (Homo sapiens) (UniProt O60331); assay: Inhibition of recombinant full-length human PIP5K1gamma at 1 uM using phosphatidylinositol 4-phosphate/phosphatidylserine as substrate after 40 mins in presence of [gamma-33P]ATP by scintillation counting method
[19] = target: Serine/threonine-protein kinase PLK1 (Homo sapiens) (UniProt P53350); assay: Inhibition of recombinant full-length human Plk1 at 1 uM using casein as substrate after 40 mins in presence of [gamma-33P]ATP by scintillation counting method
[20] = target: Serine/threonine-protein kinase PLK2 (Homo sapiens) (UniProt Q9NYY3); assay: Inhibition of recombinant human Snk (65 to 409 residues) at 1 uM using casein as substrate after 40 mins in presence of [gamma-33P]ATP by scintillation counting method
[21] = target: Serine/threonine-protein kinase TAO2 (Homo sapiens) (UniProt Q9UL54); assay: Inhibition of recombinant human TAO2 (1 to 320 residues) at 1 uM using myelin basic protein as substrate after 40 mins in presence of [gamma-33P]ATP by scintillation counting method
[22] = target: Tyrosine-protein kinase TXK (Homo sapiens) (UniProt P42681); assay: Inhibition of recombinant human Txk (256 to end residues) at 1 uM using GEEPLYWSFPAKKK as substrate after 40 mins in presence of [gamma-33P]ATP by scintillation counting method
[23] = target: Serine/threonine-protein kinase ULK2 (Homo sapiens) (UniProt Q8IYT8); assay: Inhibition of recombinant human ULK2 (1 to 306 residues) at 1 uM using casein as substrate after 40 mins in presence of [gamma-33P]ATP by scintillation counting method

Serine/threonine-protein kinase PLK2 (Homo sapiens), sequence (Q9NYY3 whole entry, looked up, the tested form may be a part): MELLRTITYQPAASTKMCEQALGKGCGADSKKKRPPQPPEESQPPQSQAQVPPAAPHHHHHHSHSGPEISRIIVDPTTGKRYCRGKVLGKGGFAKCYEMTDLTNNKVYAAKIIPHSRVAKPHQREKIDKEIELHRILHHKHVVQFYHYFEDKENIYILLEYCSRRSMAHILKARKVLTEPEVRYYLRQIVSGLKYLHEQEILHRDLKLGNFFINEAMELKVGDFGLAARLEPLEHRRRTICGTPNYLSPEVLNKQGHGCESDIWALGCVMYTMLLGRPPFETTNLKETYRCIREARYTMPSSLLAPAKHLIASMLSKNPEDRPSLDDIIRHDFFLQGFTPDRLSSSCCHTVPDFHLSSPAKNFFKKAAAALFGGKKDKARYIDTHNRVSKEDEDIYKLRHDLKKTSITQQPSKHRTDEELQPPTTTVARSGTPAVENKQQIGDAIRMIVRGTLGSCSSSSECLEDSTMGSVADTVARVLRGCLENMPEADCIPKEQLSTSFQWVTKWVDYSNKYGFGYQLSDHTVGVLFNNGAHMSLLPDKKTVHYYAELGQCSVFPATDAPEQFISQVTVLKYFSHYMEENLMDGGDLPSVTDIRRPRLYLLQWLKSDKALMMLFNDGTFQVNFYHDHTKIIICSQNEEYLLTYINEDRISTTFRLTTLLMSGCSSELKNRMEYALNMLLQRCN
Mitogen-activated protein kinase kinase kinase 10 (Homo sapiens), sequence (Q02779 whole entry, looked up, the tested form may be a part): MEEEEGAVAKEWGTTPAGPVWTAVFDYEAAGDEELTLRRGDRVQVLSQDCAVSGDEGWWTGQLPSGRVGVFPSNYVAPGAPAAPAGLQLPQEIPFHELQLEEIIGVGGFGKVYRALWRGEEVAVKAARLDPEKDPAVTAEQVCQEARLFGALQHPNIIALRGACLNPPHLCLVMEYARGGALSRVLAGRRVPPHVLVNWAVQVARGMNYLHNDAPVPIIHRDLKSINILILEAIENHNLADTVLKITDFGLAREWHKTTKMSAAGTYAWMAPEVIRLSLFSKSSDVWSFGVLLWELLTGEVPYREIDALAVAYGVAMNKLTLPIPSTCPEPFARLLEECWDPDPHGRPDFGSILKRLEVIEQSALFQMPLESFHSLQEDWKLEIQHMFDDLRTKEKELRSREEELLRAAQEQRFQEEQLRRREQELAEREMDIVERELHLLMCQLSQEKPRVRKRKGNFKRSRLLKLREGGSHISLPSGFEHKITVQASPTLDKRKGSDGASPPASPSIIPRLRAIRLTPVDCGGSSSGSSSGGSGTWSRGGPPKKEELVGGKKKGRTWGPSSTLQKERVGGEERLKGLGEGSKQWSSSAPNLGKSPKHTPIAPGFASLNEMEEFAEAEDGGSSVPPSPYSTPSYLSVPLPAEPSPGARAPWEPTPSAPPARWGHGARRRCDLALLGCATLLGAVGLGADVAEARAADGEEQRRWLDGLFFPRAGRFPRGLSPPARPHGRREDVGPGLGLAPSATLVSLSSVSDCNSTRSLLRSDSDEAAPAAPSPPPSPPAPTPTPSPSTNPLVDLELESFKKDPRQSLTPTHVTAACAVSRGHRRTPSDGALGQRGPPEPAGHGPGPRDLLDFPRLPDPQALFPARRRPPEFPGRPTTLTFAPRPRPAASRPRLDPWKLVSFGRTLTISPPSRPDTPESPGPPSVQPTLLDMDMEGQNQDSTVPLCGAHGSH
Receptor-type tyrosine-protein kinase FLT3 (Homo sapiens), sequence (P36888 whole entry): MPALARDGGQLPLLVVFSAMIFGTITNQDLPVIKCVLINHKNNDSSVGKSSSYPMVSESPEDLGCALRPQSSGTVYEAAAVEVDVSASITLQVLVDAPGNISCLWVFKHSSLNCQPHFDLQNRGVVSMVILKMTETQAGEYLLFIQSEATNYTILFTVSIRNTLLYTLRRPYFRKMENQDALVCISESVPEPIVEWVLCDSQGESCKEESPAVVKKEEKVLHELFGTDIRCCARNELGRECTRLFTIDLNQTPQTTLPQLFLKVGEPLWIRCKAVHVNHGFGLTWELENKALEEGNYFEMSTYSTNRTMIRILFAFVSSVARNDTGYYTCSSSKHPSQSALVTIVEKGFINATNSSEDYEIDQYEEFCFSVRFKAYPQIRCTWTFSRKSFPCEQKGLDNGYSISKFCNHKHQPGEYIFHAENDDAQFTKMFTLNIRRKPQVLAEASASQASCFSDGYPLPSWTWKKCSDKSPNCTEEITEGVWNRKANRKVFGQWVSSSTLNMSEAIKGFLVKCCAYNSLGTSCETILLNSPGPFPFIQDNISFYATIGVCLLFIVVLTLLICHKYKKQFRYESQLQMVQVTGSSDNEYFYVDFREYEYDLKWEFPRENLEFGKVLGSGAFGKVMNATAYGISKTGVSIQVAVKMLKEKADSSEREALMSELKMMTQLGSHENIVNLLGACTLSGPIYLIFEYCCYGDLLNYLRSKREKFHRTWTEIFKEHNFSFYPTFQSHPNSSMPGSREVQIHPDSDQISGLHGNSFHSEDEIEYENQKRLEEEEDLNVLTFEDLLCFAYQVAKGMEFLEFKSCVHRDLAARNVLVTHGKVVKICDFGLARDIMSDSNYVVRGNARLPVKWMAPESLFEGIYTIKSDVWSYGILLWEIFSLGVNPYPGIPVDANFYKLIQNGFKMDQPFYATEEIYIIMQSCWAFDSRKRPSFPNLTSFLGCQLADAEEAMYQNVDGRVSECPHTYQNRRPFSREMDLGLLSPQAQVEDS
Serine/threonine-protein kinase Nek1 (Homo sapiens), sequence (Q96PY6 whole entry, the tested form may be a part): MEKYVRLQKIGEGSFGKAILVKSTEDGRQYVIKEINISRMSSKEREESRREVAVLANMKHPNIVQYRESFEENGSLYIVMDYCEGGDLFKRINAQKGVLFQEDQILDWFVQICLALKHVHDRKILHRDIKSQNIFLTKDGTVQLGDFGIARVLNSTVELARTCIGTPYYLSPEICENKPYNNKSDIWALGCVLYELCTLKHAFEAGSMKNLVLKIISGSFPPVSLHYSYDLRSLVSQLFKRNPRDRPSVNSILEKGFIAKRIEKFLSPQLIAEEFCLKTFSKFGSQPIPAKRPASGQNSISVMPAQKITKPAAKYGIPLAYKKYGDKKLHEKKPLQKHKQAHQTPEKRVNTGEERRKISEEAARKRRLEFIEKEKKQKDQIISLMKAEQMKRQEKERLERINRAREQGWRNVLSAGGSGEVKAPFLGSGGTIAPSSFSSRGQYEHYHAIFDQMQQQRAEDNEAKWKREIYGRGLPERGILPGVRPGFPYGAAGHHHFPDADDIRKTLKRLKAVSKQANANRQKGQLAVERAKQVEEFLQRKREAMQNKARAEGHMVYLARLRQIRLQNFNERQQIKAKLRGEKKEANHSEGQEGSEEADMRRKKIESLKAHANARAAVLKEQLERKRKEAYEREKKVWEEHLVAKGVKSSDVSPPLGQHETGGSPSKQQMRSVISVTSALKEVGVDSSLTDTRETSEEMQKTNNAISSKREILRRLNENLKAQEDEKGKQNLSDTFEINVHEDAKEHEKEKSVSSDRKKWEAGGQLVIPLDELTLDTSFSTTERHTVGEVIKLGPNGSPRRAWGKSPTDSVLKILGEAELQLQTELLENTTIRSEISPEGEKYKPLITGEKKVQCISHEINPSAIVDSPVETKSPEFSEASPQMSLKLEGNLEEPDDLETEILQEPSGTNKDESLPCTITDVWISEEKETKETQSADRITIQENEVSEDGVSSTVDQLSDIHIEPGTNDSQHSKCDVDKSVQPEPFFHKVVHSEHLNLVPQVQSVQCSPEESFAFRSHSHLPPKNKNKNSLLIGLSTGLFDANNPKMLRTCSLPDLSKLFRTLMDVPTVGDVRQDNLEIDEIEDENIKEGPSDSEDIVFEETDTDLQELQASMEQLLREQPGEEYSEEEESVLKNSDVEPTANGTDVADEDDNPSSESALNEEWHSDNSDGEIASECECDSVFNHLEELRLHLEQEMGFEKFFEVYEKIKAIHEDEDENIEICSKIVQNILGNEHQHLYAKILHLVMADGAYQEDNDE
Serine/threonine-protein kinase PLK1 (Homo sapiens), sequence (P53350 whole entry, the tested form may be a part): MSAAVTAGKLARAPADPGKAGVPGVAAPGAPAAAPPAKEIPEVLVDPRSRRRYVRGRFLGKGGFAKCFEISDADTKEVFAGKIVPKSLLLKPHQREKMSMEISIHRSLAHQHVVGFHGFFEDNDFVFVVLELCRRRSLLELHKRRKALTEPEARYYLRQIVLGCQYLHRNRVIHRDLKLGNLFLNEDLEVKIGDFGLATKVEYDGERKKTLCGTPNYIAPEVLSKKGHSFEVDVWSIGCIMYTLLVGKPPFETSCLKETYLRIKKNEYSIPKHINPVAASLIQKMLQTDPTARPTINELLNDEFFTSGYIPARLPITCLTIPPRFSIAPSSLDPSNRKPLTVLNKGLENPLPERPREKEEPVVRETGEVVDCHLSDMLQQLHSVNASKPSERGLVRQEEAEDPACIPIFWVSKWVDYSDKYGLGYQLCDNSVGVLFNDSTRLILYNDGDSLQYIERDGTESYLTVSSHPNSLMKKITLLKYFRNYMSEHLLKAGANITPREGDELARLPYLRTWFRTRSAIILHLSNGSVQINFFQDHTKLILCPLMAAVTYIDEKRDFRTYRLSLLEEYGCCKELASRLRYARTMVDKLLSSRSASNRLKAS
Dual specificity mitogen-activated protein kinase kinase 2 (Homo sapiens), sequence (P36507 whole entry): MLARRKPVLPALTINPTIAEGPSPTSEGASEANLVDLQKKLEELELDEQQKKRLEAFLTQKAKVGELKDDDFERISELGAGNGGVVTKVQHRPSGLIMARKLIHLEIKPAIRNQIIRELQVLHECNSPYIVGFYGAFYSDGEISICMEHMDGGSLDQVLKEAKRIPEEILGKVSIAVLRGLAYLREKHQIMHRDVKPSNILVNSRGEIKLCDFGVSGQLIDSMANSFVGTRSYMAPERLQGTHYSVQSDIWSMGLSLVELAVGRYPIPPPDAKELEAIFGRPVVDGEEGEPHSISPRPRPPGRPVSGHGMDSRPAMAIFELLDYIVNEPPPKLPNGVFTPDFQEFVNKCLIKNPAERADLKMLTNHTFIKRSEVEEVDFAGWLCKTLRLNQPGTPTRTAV

CS(=O)(=O)c1ccc(-n2nc(-c3cnc4[nH]ccc4c3)c3c(N)ncnc32)cc1
inhibition [1]: 13% | inhibition [2]: 13% | inhibition [3]: 11% | inhibition [4]: 3% | inhibition [5]: 0% | inhibition [6]: 1% | inhibition [7]: 16% | inhibition [8]: -1% | inhibition [9]: 2% | inhibition [10]: 50% | inhibition [11]: 2% | inhibition [12]: -7% | inhibition [13]: 3% | inhibition [14]: -1% | inhibition [15]: -2% | inhibition [16]: -4% | inhibition [17]: -7% | inhibition [18]: 3% | inhibition [19]: -1% | inhibition [20]: -6% | inhibition [21]: 9% | inhibition [22]: 78% | inhibition [23]: 5%
